The values below come from patent US9487515B2, “Compounds modulating c-fms and/or c-kit activity and uses therefor” (Plexxikon Inc., priority 2006, dated 2016).

One experiment concerns the target c-kit (Homo sapiens, UniProt P10721). Kind of experiment: c-kit assays of Examples 40 and 41 (AlphaScreen kinase assays at 10 and 100 μM ATP, 33P-ATP filter assay, M-07e SCF-stimulated proliferation and phosphorylation).
The next experiment concerns the target T1, TrkA kinase (Homo sapiens, UniProt P04629).
T1 construct: purchased Upstate Biotech #14-571
In words: TrkA biochemical assay (AlphaScreen). The conditions noted are these: 100 μM ATP.

A further experiment addresses MAP4K4 (HGK) (Homo sapiens, UniProt O95819). Kind of experiment: HGK biochemical assay (AlphaScreen). The following applies: 10 μM ATP. The method, then:
Substrate was 10 nM biotin-ERM (T567/T564/T558, Cell Signaling, Inc., cat#1344). MAP4K4 kinase was at 0.5 ng per sample.
(In general: In Alpha technology, singlet oxygen from a donor bead excites a nearby acceptor bead.)

The subject of experiment [1] is cells with activating c-kit mutations. The conditions noted are these: mutations in the catalytic region; cited from earlier work.

T1 sequence (P04629 33-796): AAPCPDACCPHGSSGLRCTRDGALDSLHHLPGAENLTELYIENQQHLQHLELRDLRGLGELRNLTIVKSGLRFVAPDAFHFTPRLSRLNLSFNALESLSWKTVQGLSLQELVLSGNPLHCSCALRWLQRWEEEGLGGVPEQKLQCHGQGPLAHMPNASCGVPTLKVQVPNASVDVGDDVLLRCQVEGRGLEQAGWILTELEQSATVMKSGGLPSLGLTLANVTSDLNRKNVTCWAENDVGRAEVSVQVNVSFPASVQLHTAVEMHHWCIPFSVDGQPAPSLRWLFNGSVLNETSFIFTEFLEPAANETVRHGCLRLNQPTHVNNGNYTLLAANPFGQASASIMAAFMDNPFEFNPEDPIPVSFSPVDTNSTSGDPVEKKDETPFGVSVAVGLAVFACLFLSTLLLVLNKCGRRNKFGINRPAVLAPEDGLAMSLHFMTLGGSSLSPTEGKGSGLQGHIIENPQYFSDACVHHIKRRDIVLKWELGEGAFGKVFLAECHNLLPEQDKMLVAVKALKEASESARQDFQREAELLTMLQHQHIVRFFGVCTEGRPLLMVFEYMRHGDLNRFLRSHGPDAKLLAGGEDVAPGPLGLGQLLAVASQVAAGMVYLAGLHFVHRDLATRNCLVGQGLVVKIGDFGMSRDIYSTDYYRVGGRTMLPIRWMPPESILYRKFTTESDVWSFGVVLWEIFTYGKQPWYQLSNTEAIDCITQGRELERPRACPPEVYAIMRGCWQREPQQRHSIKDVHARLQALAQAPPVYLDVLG
c-kit, sequence (P10721 with tags, fused parts or gaps): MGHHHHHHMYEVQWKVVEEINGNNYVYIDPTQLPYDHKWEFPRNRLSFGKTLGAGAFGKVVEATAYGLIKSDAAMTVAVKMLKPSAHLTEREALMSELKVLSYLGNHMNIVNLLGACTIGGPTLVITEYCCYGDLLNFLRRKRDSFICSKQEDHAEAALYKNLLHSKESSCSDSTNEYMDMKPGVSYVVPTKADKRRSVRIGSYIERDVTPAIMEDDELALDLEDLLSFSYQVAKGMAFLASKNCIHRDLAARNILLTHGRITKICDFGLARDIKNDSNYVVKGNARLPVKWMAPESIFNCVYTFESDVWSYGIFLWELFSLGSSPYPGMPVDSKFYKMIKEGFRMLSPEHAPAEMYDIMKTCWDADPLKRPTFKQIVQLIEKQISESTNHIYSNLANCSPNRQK
MAP4K4 (HGK), sequence (O95819 whole entry): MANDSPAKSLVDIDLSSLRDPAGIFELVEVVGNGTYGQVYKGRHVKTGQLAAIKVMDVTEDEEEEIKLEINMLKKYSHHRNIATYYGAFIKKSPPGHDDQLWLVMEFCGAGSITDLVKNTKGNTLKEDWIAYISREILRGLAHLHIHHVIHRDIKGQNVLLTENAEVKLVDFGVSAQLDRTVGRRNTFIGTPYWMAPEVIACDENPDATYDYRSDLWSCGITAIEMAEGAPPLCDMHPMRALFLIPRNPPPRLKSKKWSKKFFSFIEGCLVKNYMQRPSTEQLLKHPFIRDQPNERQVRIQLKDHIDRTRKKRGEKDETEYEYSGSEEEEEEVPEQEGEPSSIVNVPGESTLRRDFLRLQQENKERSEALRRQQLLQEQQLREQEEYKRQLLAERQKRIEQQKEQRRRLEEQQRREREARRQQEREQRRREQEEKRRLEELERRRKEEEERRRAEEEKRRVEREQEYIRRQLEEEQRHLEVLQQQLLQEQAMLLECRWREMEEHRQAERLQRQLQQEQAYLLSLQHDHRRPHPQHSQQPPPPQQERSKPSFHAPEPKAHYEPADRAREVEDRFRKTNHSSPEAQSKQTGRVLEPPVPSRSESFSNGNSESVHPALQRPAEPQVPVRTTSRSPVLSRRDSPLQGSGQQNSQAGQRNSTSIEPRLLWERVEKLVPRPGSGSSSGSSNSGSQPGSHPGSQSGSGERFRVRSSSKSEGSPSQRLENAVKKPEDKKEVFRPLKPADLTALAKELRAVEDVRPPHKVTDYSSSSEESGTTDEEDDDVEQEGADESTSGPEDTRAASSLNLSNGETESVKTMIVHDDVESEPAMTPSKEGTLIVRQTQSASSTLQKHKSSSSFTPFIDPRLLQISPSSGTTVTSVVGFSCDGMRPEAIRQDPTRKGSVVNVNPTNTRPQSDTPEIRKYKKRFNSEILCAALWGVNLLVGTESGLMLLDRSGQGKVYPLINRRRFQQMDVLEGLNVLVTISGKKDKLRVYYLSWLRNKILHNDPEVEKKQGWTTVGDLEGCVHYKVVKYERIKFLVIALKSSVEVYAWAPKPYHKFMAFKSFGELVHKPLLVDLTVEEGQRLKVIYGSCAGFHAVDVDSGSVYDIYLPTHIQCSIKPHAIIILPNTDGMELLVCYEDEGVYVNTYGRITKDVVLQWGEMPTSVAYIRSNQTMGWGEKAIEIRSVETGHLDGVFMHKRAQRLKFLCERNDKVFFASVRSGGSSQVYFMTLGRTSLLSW

Regarding `Cn1cc(-c2cnc3[nH]cc(Cc4ccc(NCc5ccc(C(F)(F)F)nc5)nc4Cl)c3c2)cn1` [P-0179, {6-Chloro-5-[5-(1-methyl-1H-pyrazol-4-yl)-1H-pyrrolo[2,3-b]pyridin-3-ylmethyl]-pyridin-2-yl}-(6-trifluoromethyl-pyridin-3-ylmethyl)-amine], the IC50 against c-kit, on TrkA kinase and against MAP4K4 (HGK) was below 1000 nM in each case.
For the molecule `O=C(Nc1cccc(F)c1)Nc1ccc(Cc2c[nH]c3ncccc23)cn1` [P-0412, 1-(3-fluoro-phenyl)-3-[5-(1H-pyrrolo[2,3-b]pyridin-3-ylmethyl)-pyridin-2-yl]-urea], the IC50 against c-kit and against TrkA kinase was below 1000 nM each time.
As to `Cc1ccc(NC(=O)c2ccc(CN3CCN(C)CC3)cc2)cc1Nc1nccc(-c2cccnc2)n1` [STI571], the “inhibition of cells with c-kit mutations” value in experiment [1] is “did not inhibit the cells”.
